Test results as given in patent US20100285959A1, “HERBICIDAL MIXTURES” (priority 2006, published 2010).

Assays:
[1] = system: broadleaf buttonweed (BOILF); assay: Test 12 field trial, preemergence; format: in vivo, Borreria latifolia; parameters: scale not given here; conditions: Cpd 2 or Cpd 1 62 g a.i./ha, Diuron 2000 g a.i./ha
Source text: In early-mid spring season, corn seeds (hybrid ‘Pioneer 3041’) were planted 5 cm deep and sugarcane nodes (variety RB-72.454) were planted 10 cm deep in separate plots in a clay soil having 2.6% organic matter and a pH of 5.6. Plots were 24 m long by 1.5 m wide with rows spaced 80 cm (corn) or 140 cm (sugarcane) apart. Corn seeds were spaced 15 cm apart and sugarcane nodes were spaced 10 cm apart within the rows. At the same time, weed seeds were broadcast over the surface of separate plots without a crop, one weed species per plot. The weed plots were rotary tilled to incorporate the weed seeds to a variety of depths. The field was managed using conventional tillage practices.

[2] = system: giant foxtail (SETFA); assay: Test 2 field trial, preemergence; format: in vivo, Setaria faberi; parameters: scale not given here
Source text: Corn seeds (hybrid ‘Pioneer 31G96’) were planted in mid spring season, 3.8 cm deep in a clay loam soil having 2% organic matter and a pH of 6.6. Plots were 6.1 m long by 3.0 m wide with rows spaced 76 cm apart. Seeds were spaced 15 cm apart within the rows. The field was managed using conventional tillage practices. […] A few of the weed species could not be evaluated at every timing. […] Results are the means of the three replicates.

[3] = system: common dandelion (TAROF); assay: Test 9 field trial, emerged weeds before corn planting; format: in vivo, Taraxacum officinale; conditions: g a.i./ha: Cpd 2 100, Glyphosate 1540, Paraquat 1150
Experimental: (§1) Corn seeds (hybrid ‘Pioneer 34M91 RR’) were planted in mid spring season, about 3.8 cm deep in a silty clay loam soil having a pH of 6.7. Plots were 9.1 m long by 3.0 m. The field was managed using no-till practices. […] Compound 2 and paraquat treatments, alone and in combination, also included a surfactant. Glyphosate, alone and with Compound 2, included ammonium sulfate in the treatment mixture. […] The effects on the weeds in the treated plots and untreated control plots were recorded 7, 14, 23, 30 and 57 days after application. Most of the weed species could not be evaluated at every timing. Corn response was only evaluated 57 days after application. […] Results are the means of the three replicates.

[4] = system: corn (ZEAMD); assay: Test 7 field trial, preemergence; format: in vivo, Zea mays ssp. indentata
Experimental: Plots were 7.6 m long by 3.0 m wide with rows spaced 76 cm apart. Seeds were spaced 15 cm apart within the rows. The field was managed using conventional tillage practices. […] Wild radish was evaluated 14 and 28 days after application. […] Results are the means of the three replicates.

[5] = system: wild buckwheat (POLCO); assay: Test 22 growth chamber, postemergence; format: in vivo, Polygonum convolvulus; conditions: 25 DAA
Experimental: (§2) A test was conducted to evaluate the effects on winter barley (HORVW, Hordeum vulgare L.), winter wheat (TRZAW, Triticum aestivum L.), and several weed species of mixtures of Compound 2 with the commercial herbicides (2,4-dichlorophenoxy)acetic acid (2,4-D) and (4-chloro-2-methylphenoxy)acetic acid (MCPA), auxin mimics. […] Plants were treated postemergence at the 2-4 leaf growth stage, except KCHSC, SASKR and STEME which were in the 4-8 leaf growth stage. Each treatment was replicated one time. […] Plants were watered as needed. […] Results are from single replicates.

[6] = system: winter wheat (TRZAW); assay: Test 22 growth chamber, postemergence; format: in vivo, Triticum aestivum; conditions: 25 DAA
Experimental: as §2

[7] = system: wild mustard (SINAR); assay: Test 21 growth chamber, postemergence; format: in vivo, Sinapis arvensis; conditions: 19 DAA
Experimental: (§3) A test was conducted to evaluate the effects on winter barley (HORVW, Hordeum vulgare L.), winter wheat (TRZAW, Triticum aestivum L.), and several weed species, of mixtures of Compound 2 with the commercial herbicide (2,4-dichlorophenoxy)acetic acid (2,4-D), an auxin mimic. […] Plants were treated postemergence at the 2-4 leaf growth stage, and each treatment was replicated one time. […] Plants were watered as needed. […] Results are from single replicates.

[8] = system: common chickweed (STEME); assay: Test 23 growth chamber, postemergence; format: in vivo, Stellaria media; conditions: 21 DAA
Experimental: A test was conducted to evaluate the effects on winter barley (HORVW, Hordeum vulgare L.), winter wheat (TRZAW, Triticum aestivum L.), and several weed species of mixtures of Compound 2 with the commercial herbicides (2,4-dichlorophenoxy)acetic acid (2,4-D) and (4-chloro-2-methylphenoxy)acetic acid (MCPA), auxin mimics. […] Plants were treated postemergence at the 2-4 leaf growth stage, and each treatment was replicated three times. […] Plants were watered as needed. […] Results are means of the three replicates.

[9] = system: bushy wallflower (ERYRE); assay: Test 9 field trial, emerged weeds before corn planting; format: in vivo, Erysimum repandum; conditions: g a.i./ha: Cpd 2 100, Glyphosate 1540, Paraquat 1150
Experimental: as §1

[10] = system: Russian thistle (SASKR); assay: Test 21 growth chamber, postemergence; format: in vivo, Salsola kali; conditions: 19 DAA
Experimental: as §3

[11] = 18 DAA, g a.i./ha: Cpd 2 25, Atrazine 250
[12] = 18 DAA, g a.i./ha: Cpd 2 50, Atrazine 500
[13] = 18 DAA, g a.i./ha: Cpd 2 75, Atrazine 750
[14] = 18 DAA, g a.i./ha: Cpd 2 100, Atrazine 1000
[15] = 18 DAA, g a.i./ha: Cpd 2 150, Atrazine 1500
[16] = 28 DAA, g a.i./ha: Cpd 2 25, Atrazine 250
[17] = 28 DAA, g a.i./ha: Cpd 2 50, Atrazine 500
[18] = 28 DAA, g a.i./ha: Cpd 2 75, Atrazine 750
[19] = 28 DAA, g a.i./ha: Cpd 2 100, Atrazine 1000
[20] = 28 DAA, g a.i./ha: Cpd 2 150, Atrazine 1500
[21] = 2,4-D or MCPA alone 250 g a.i./ha

SMILES | BOILF Obs ([1]; 15 DAA) | BOILF Obs ([1]; 29 DAA) | BOILF Obs ([1]; 48 DAA) | BOILF Obs ([1]; 61 DAA) | SETFA Obs [2, 11] | SETFA Obs [2, 12] | SETFA Obs [2, 13] | SETFA Obs [2, 14] | SETFA Obs [2, 15] | SETFA Obs [2, 16] | SETFA Obs [2, 17] | SETFA Obs [2, 18] | SETFA Obs [2, 19] | SETFA Obs [2, 20] | TAROF Obs ([3]; 7 DAA) | TAROF Obs ([3]; 14 DAA) | TAROF Obs ([3]; 23 DAA) | TAROF Obs ([3]; 30 DAA) | TAROF Obs ([3]; 57 DAA) | ERYRE Obs ([9]; 7 DAA) | also measured
Nc1nc(C2CC2)nc(C(=O)O)c1Cl [Compound 1, 6-amino-5-chloro-2-cyclopropyl-4-pyrimidinecarboxylic acid] | 70 | 60 | 95 | 95 |  |  |  |  |  |  |  |  |  |  |  |  |  |  |  |  | 
COC(=O)c1nc(C2CC2)nc(N)c1Cl [Compound 2, methyl 6-amino-5-chloro-2-cyclopropyl-4-pyrimidinecarboxylate] | 70 | 60 | 95 | 100 | 13 | 22 | 32 | 35 | 43 | 5 | 10 | 30 | 23 | 65 | 37% | 38% | 60% | 65% | 84% | 20% | ZEAMD Obs ([4]; hybrid Pioneer 36B10, corn (Zea mays ssp. indentata), in vivo, 62 days after application): 0%; Postemergence POLCO Obs ([5]; Cpd 2 alone 4 g a.i./ha): 55; Postemergence POLCO Obs ([5]; Cpd 2 alone 8 g a.i./ha): 60; Postemergence POLCO Obs ([5]; Cpd 2 alone 16 g a.i./ha): 60; Postemergence TRZAW Obs ([6]; Cpd 2 alone 4 g a.i./ha): 30; Postemergence TRZAW Obs ([6]; Cpd 2 alone 8 g a.i./ha): 35; Postemergence TRZAW Obs ([6]; Cpd 2 alone 16 g a.i./ha): 40; Postemergence SINAR Obs ([7]; Cpd 2 alone 16 g a.i./ha): 65; Postemergence STEME Obs ([8]; Cpd 2 alone 4 g a.i./ha): 55; Postemergence STEME Obs ([8]; Cpd 2 alone 8 g a.i./ha): 58; Postemergence STEME Obs ([8]; Cpd 2 alone 16 g a.i./ha): 67; ERYRE Obs ([9]; 14 DAA): 3%; ERYRE Obs ([9]; 23 DAA): 3%; ERYRE Obs ([9]; 30 DAA): 0%; ERYRE Obs ([9]; 57 DAA): 0%; Postemergence SASKR Obs ([10]; Cpd 2 alone 16 g a.i./ha): 65
CCNc1nc(Cl)nc(NC(C)C)n1 [Atrazine, atrazine, reference compound] |  |  |  |  | 20 | 25 | 40 | 43 | 38 | 37 | 67 | 83 | 87 | 88 |  |  |  |  |  |  | SETFA Obs ([2]; 55 DAA, g a.i./ha: Cpd 2 25, Atrazine 250): 35; SETFA Obs ([2]; 55 DAA, g a.i./ha: Cpd 2 50, Atrazine 500): 60; SETFA Obs ([2]; 55 DAA, g a.i./ha: Cpd 2 75, Atrazine 750): 58; SETFA Obs ([2]; 55 DAA, g a.i./ha: Cpd 2 100, Atrazine 1000): 65; SETFA Obs ([2]; 55 DAA, g a.i./ha: Cpd 2 150, Atrazine 1500): 80
CCc1cccc(C)c1N(C(=O)CCl)[C@@H](C)COC [S-Metolachlor, S-metolachlor, reference compound] |  |  |  |  |  |  |  |  |  |  |  |  |  |  |  |  |  |  |  |  | ZEAMD Obs ([4]; 14 DAA, 1000 g a.i./ha): 10%; ZEAMD Obs ([4]; 28 DAA, 1000 g a.i./ha): 8%; ZEAMD Obs ([4]; 62 DAA, 1000 g a.i./ha): 0%
O=C(O)COc1ccc(Cl)cc1Cl [2,4-D, (2,4-dichlorophenoxy)acetic acid] |  |  |  |  |  |  |  |  |  |  |  |  |  |  |  |  |  |  |  |  | Postemergence POLCO Obs [5, 21]: 45; Postemergence TRZAW Obs [6, 21]: 20; Postemergence SINAR Obs ([7]; 2,4-D alone 125 g a.i./ha): 85; Postemergence SINAR Obs ([7]; 2,4-D alone 250 g a.i./ha): 65; Postemergence STEME Obs [8, 21]: 65; Postemergence SASKR Obs ([10]; 2,4-D alone 125 g a.i./ha): 60; Postemergence SASKR Obs ([10]; 2,4-D alone 250 g a.i./ha): 55
O=C(O)CNCP(=O)(O)O [Glyphosate] |  |  |  |  |  |  |  |  |  |  |  |  |  |  | 37% | 62% | 83% | 90% | 88% | 63% | ERYRE Obs ([9]; 14 DAA): 74%; ERYRE Obs ([9]; 23 DAA): 89%; ERYRE Obs ([9]; 30 DAA): 100%; ERYRE Obs ([9]; 57 DAA): 100%
